30 compounds from ChEMBL document CHEMBL1149541, “Potent macrocyclic antagonists to the motilin receptor presenting novel unnatural amino acids” (Bioorg Med Chem Lett, 2007) can be followed below.

Test [1] deals with T1, Motilin receptor (Homo sapiens, UniProt O43193). Nature of the test: Displacement of [125I]motilin from human motilin receptor expressed in CHO cells. The class given is cell-based.
For test [2], the target named is T1, Motilin receptor. Nature of the test: Antagonist activity against human motilin receptor in aequoscreen cells assessed as inhibition of motilin induced calcium release by aequorin assay. Type of test: functional, cell-based.

T1 sequence (O43193 whole entry): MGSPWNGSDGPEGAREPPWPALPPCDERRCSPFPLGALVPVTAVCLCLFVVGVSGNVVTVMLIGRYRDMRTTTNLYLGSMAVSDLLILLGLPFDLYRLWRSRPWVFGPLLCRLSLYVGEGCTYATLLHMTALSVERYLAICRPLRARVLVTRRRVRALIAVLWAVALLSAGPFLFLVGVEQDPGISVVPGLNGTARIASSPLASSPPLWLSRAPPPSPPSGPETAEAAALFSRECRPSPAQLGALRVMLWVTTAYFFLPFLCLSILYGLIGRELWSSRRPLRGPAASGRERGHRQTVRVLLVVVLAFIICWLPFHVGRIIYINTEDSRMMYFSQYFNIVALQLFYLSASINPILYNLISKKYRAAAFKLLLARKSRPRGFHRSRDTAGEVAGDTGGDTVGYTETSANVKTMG

Compound `CC(C)[C@H]1NC(=O)[C@@H](Cc2cccc(C(F)(F)F)c2)NCCOc2ccccc2CCCNC(=O)[C@H](CNc2ncccn2)NC1=O` returned an inhibition constant Ki at Motilin receptor [1] of 20 nM. On the same count and under the same terms, to `CC(C)[C@H]1NC(=O)[C@@H](Cc2ccc(Cl)cc2)NCCOc2ccccc2CCCNC(=O)[C@H](CN=C(N)N)NC1=O` belongs 6 nM. Regarding `CC(C)[C@H]1NC(=O)[C@@H](Cc2ccc(O)cc2)NCCOc2ccccc2CCCNC(=O)[C@H](CCN)NC1=O`, the Ki on Motilin receptor [1] worked out at 342 nM.

At Motilin receptor [1], `CC(C)[C@H]1NC(=O)[C@@H](Cc2ccc(Cl)cc2)NCCOc2ccccc2CCCNC(=O)[C@H](CNC(N)=O)NC1=O` displayed a Ki of 543 nM. For the compound `CC(C)NC[C@@H]1NC(=O)[C@@H](C(C)C)NC(=O)[C@@H](Cc2ccc(O)cc2)NCCOc2ccccc2CCCNC1=O`, the Ki on Motilin receptor [1] came to 376 nM. This Ki and that of the compound before are within 1.5-fold of each other. For the compound `CC(=O)NC[C@@H]1NC(=O)[C@@H](C(C)C)NC(=O)[C@@H](Cc2ccc(O)cc2)NCCOc2ccccc2CCCNC1=O`, the Ki at Motilin receptor [1] was 1950 nM. Compared with the last compound, the Ki is about 5.2-fold higher.

As for `CNC[C@@H]1NC(=O)[C@@H](C(C)C)NC(=O)[C@@H](Cc2ccc(Cl)cc2)NCCOc2ccccc2CCCNC1=O`, the IC50 at Motilin receptor [2] was 33 nM. The affinity on Motilin receptor [1] corresponds to a Ki of 31 nM.

Regarding `CC(C)[C@H]1NC(=O)[C@@H](Cc2ccc(Cl)cc2)NCCOc2ccccc2CCCNC(=O)[C@H](CN(C)C)NC1=O`, at Motilin receptor [1], the inhibition constant Ki was found to be 16 nM. With `CNC[C@@H]1NC(=O)[C@@H](C(C)C)NC(=O)[C@@H](Cc2cccc(C(F)(F)F)c2)NCCOc2ccccc2CCCNC1=O`, the IC50 on Motilin receptor [2] was found to be 3 nM. The Ki on Motilin receptor [1] was determined as 6 nM. The compound `CC(C)[C@H]1NC(=O)[C@@H](Cc2cccc(F)c2)NCCOc2ccccc2CCCNC(=O)[C@H](Cc2cscn2)NC1=O` registered a Ki on Motilin receptor [1] of 116 nM. In other words, the sub-micromolar range. `CC(C)[C@H]1NC(=O)[C@@H](Cc2cccc(Cl)c2)NCCOc2ccccc2CCCNC(=O)[C@H](CCC(=N)N)NC1=O`: the inhibition constant (Ki) on Motilin receptor [1] is 27 nM. This Ki is about 4.3-fold lower than that of the compound before. Still for that read-out and setting: to `Cc1cnnn1C[C@@H]1NC(=O)[C@@H](C(C)C)NC(=O)[C@@H](Cc2cccc(C(F)(F)F)c2)NCCOc2ccccc2CCCNC1=O` belongs 17 nM.

Regarding `CC(C)[C@H]1NC(=O)[C@@H](Cc2cccc(C(F)(F)F)c2)NCCOc2ccccc2CCCNC(=O)[C@H](CN)NC1=O`, the IC50 at Motilin receptor [2] is 8 nM. The same compound had a Ki at Motilin receptor [1] of 15 nM. With `CC(C)[C@H]1NC(=O)[C@@H](Cc2cccc(Cl)c2)NCCOc2ccccc2CCCNC(=O)[C@H](CNC2=NCCCN2)NC1=O`, the affinity on Motilin receptor [1], expressed as Ki, was 87 nM. In the case of `CC(C)[C@H]1NC(=O)[C@@H](Cc2ccc(Cl)cc2)NCCOc2ccccc2CCCNC(=O)[C@H](CN)NC1=O`, the inhibition constant (Ki) on Motilin receptor [1] was 60 nM. In turn, `CC(C)[C@H]1NC(=O)[C@@H](Cc2ccc(O)cc2)NCCOc2ccccc2/C=C/CNC(=O)[C@H](CCCN)NC1=O` came in with a Ki at Motilin receptor [1] of 889 nM. Compound `CC(C)[C@H]1NC(=O)[C@@H](Cc2cccc(Cl)c2)NCCOc2ccccc2CCCNC(=O)[C@H](CN=C(N)N)NC1=O` returned a Ki at Motilin receptor [1] of 57 nM. At Motilin receptor [1], `Cc1nnnn1C[C@@H]1NC(=O)[C@@H](C(C)C)NC(=O)[C@@H](Cc2cccc(C(F)(F)F)c2)NCCOc2ccccc2CCCNC1=O` came in with a Ki of 21 nM. For the compound `CC(C)[C@H]1NC(=O)[C@@H](Cc2cccc(Cl)c2)NCCOc2ccccc2CCCNC(=O)[C@H](Cn2cccn2)NC1=O`, at Motilin receptor [2], the IC50 worked out at 56 nM. For the same compound, the Ki at Motilin receptor [1] stood at 18 nM. Regarding `CC(C)[C@H]1NC(=O)[C@@H](Cc2ccc(O)cc2)NCCOc2ccccc2CCCNC(=O)[C@H](CN)NC1=O`, on Motilin receptor [1], the inhibition constant Ki came out at 171 nM. This counts as sub-micromolar.

As for `CC(C)[C@H]1NC(=O)[C@@H](Cc2cccc(C(F)(F)F)c2)NCCOc2ccccc2CCCNC(=O)[C@H](CN2CCCC2)NC1=O`, on Motilin receptor [2], the IC50 was 2 nM. In addition, on Motilin receptor [1], the affinity corresponds to a Ki of 4.6 nM. Take `CC(C)[C@H]1NC(=O)[C@@H](Cc2cccc(Cl)c2)NCCOc2ccccc2CCCNC(=O)[C@H](Cn2ccnc2)NC1=O`: at Motilin receptor [1], the Ki is 62 nM. As for `CC(C)[C@H]1NC(=O)[C@@H](Cc2cccc(Cl)c2)NCCOc2ccccc2CCCNC(=O)[C@H](CN)NC1=O`, at Motilin receptor [1], affinity was put at a Ki of 64 nM. At Motilin receptor [1], `CC(C)[C@H]1NC(=O)[C@@H](Cc2cccc(Cl)c2)NCCOc2ccccc2CCCNC(=O)[C@H](CNc2nccs2)NC1=O` showed a Ki of 41 nM. This Ki is about 1.6-fold lower than that of the compound before.

As to `CC(C)[C@H]1NC(=O)[C@@H](Cc2cccc(C(F)(F)F)c2)NCCOc2ccccc2CCCNC(=O)[C@H](CNC(=N)N)NC1=O`, the IC50 at Motilin receptor [2] came to 28 nM. Also, at Motilin receptor [1], the inhibition constant (Ki) came to 6 nM. The matching figures for `CC(C)[C@H]1NC(=O)[C@@H](Cc2cccc(Cl)c2)NCCOc2ccccc2CCCNC(=O)[C@H](CN(C)C)NC1=O`: 95 nM and 27 nM. Turning to `CC(C)[C@H]1NC(=O)[C@@H](Cc2cccc(Cl)c2)NCCOc2ccccc2CCCNC(=O)[C@H](CN=C2NCCN2)NC1=O`, the Ki on Motilin receptor [1] was determined as 51 nM. This counts as double-digit nanomolar. Regarding `Cc1nnn(C[C@@H]2NC(=O)[C@@H](C(C)C)NC(=O)[C@@H](Cc3cccc(C(F)(F)F)c3)NCCOc3ccccc3CCCNC2=O)c1C`, at Motilin receptor [1], the affinity corresponds to a Ki of 23 nM. Still for that read-out and setting: to `CC(C)[C@H]1NC(=O)[C@@H](Cc2cccc(Cl)c2)NCCOc2ccccc2CCCNC(=O)[C@H](CN/C(N)=N/C#N)NC1=O` belongs 100 nM; to `CC(C)[C@H]1NC(=O)[C@@H](Cc2cccc(Cl)c2)NCCOc2ccccc2CCCNC(=O)[C@H](CCN=C(N)N)NC1=O`, 33 nM.
